The values that follow come from patent US20240262806A1, “INHIBITORS OF NLRP3” (PTC THERAPEUTICS, INC., priority 2021, published 2024).

This assay deals with NLRP3 inflammasome. Kind of assay: IL-1β Secretion Assay (NLRP3-dependent IL-1β secretion in PMA-differentiated THP-1 cells, nigericin activation, HTRF). Format: cell-based. The settings on record: Homo sapiens, THP-1, THP-1 cells, 100 ng/mL PMA 24 h, compound 20 h, 2.5 μM Nigericin 3 h; read-out: IC50 IL-1β Inhibition. In short, it runs like this: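 IL-1β release, quantified by HTRF after nigericin activation of the NLRP3 inflammasome, was the read-out. A logistic fit of percent inhibition gave IC50.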
As usually defined, the IC50 is the point on the concentration scale where inhibition reaches its midpoint. On to `CCN1CCC[C@H]1CNc1nnc(-c2c(O)cc(C3CC3)cc2F)c2cccn12` [Compound I-583], for which the IC50 is 0.001 to 0.01 µM.
Regarding `[2H]C1(N2CCC[C@@H](Nc3nnc(-c4ccc(C(F)(F)F)cc4O)c4ccncc34)C2)CCC1` [Compound I-300], the IC50 was < 0.001 µM.
Consider `Oc1cc(C(F)(F)F)ccc1-c1nnc(N[C@@H]2CCC[C@H](O)C2)n2ccc(F)c12` [Compound I-526], for which the IC50 lay in the range of 0.01 to 0.1 µM.
Then `CN1CCC[C@@H](N(C)c2nnc(-c3ccc(C(F)(F)F)cc3O)c3c2CCCC3)C1` [Compound I-47, 2-[4-[Methyl-[(3R)-1-methyl-3-piperidyl]amino]-5,6,7,8-tetrahydrophthalazin-1-yl]-5-(trifluoromethyl)phenol], with < 0.001 µM; and `CCN1CCC[C@@H](Nc2nnc(-c3ccc(C(F)(F)F)cc3O)c3ccncc23)C1` [Compound I-43], with < 0.001 µM; and `Cc1cc(O)c(-c2nnc(N[C@@H]3CCCN(C(C)C)C3)n3cccc23)c(F)c1` [Compound I-569], with < 0.001 µM.
Take `Cc1cc2c(N[C@@H]3CCCN(CCO)C3)nnc(-c3ccc(C(F)(F)F)cc3O)n2n1` [Compound I-338]: the IC50 was 0.01 to 0.1 µM.
In the case of `CN1CCC(Nc2nnc(-c3ccc(C(F)(F)F)cc3O)c3ccncc23)CC1` [Compound I-224], the IC50 lay within 0.01 to 0.1 µM.
On to `COc1cc(C#N)ccc1-c1nnc(N[C@@H]2CCCN(C)C2)n2cccc12` [Compound I-407], for which the half-inhibitory concentration (IC50) lay within 0.01 to 0.1 µM.
Consider `COc1cc(C(F)(F)F)ccc1-c1nnc(NC2CC3CCC(C3)N2C)c2cnccc12` (centres unmarked) [Compound I-213], for which the IC50 is 0.1 to 0.3 µM.
With `CN1CCC[C@H](Nc2nnc(-c3ccc(-c4ncco4)cc3O)c3ccncc23)C1` [Compound I-176], the IC50 is 0.001 to 0.01 µM.
As for `CN1CCC[C@@H](Nc2nnc(-c3ccc(C(F)(F)F)cc3OC(F)F)c3cncn23)C1` [Compound I-624], the IC50 lay in the range of 0.001 to 0.01 µM.
In the case of `Oc1cc(C(F)(F)F)ccc1-c1nnc(N[C@@H]2CCCN(C3CC3)C2)c2cnccc12` [Compound I-215, 2-[4-[[(3R)-1-cyclopropyl-3-piperidyl]amino]pyrido[3,4-d]pyridazin-1-yl]-5-(trifluoromethyl)phenol], the IC50 is < 0.001 µM.
In the case of `CCN1CCC[C@@H](Nc2nnc(-c3ccc(OC(F)F)cc3OC(F)F)c3cccn23)C1` [Compound I-613], the IC50 lay in the range of 0.001 to 0.01 µM.
Regarding `CN1CCC[C@@H](Nc2nnc(-c3ccc(C(F)(F)F)cc3O)c3cc(F)ccc23)C1` [Compound I-9], the IC50 was in the range of 0.001 to 0.01 µM.
The value for `C[C@]1(O)C[C@@H](Nc2nnc(-c3ccc(C(F)(F)F)cc3C(F)(F)F)c3cccn23)C1` [Compound I-532] was 0.001 to 0.01 µM.
`CCN1CCC[C@@H](Nc2nnc(-c3ccc(C(F)(F)F)cc3OC(F)F)c3cccn23)C1` [Compound I-335]: the half-inhibitory concentration (IC50) was < 0.001 µM.
The value for `CN1CCCCC(Nc2nnc(-c3ccc(C(F)(F)F)cc3O)c3cnccc23)C1` (centres unmarked) [Compound I-185] was 0.01 to 0.1 µM; that for `FC(F)(F)c1ccc(-c2nnc(N[C@@H]3CCCN(C4CCOCC4)C3)n3cccc23)c(C(F)(F)F)c1` [Compound I-516] was 0.001 to 0.01 µM; that for `Cc1ccc(-c2nnc(N[C@@H]3CCCN(C)C3)c3ccncc23)c(O)c1` [Compound I-99] was < 0.001 µM.
Turning to `CN1CCC[C@@H](Nc2nnc(-c3ccc(Cl)cc3C#N)c3ccncc23)C1` [Compound I-157], the half-inhibitory concentration (IC50) is 0.001 to 0.01 µM.
Turning to `CN1CCC[C@@H](Nc2nnc(-c3ccc(C(F)(F)F)nc3O)c3ccccc23)C1` [Compound I-75], the half-inhibitory concentration (IC50) is 0.01 to 0.1 µM.
For `COc1ccc(-c2nnc(N[C@@H]3CCCNC3)c3cc(C)nn23)c(O)c1` [Compound I-339], the IC50 lay in the range of 0.1 to 0.3 µM.
The value for `CN1C[C@H](F)C[C@@H](Nc2nnc(-c3ccc(Cl)cc3O)c3cncn23)C1` [Compound I-557] was 0.001 to 0.01 µM; that for `CN1CC[C@@H](Nc2nnc(-c3ccc(C(F)(F)F)cc3O)c3c2CCCC3)C1` [Compound I-26] was 0.01 to 0.1 µM.
As to `Oc1cc(C(F)(F)F)ccc1-c1nnc(N[C@@H]2CCCNC2)n2cccc12` [Compound I-352], the IC50 fell in the range of 0.001 to 0.01 µM.
As to `CCN1CCC[C@@H](Nc2nnc(-c3ccc(OC)cc3O)c3ccnn23)C1` [Compound I-632], the IC50 lay within 0.001 to 0.01 µM.
Take `CC(C)N1CCC[C@@H](Nc2nnc(-c3ccc(C(F)(F)F)cc3OC(F)F)c3c(F)ccn23)C1` [Compound I-592]: the IC50 was < 0.001 µM.
For `CN1C[C@H](O)C[C@@H](Nc2nnc(-c3ccc(C(F)(F)F)cc3OC(F)F)c3cccn23)C1` [Compound I-385, (3R,5R)-5-[[1-[2-(Difluoromethoxy)-4-(trifluoromethyl)phenyl]pyrrolo[1,2-d][1,2,4]triazin-4-yl]amino]-1-methyl-piperidin-3-ol], the IC50 was in the range of 0.1 to 0.3 µM.
With `CN1C[C@H](F)C[C@@H](Nc2nnc(-c3ccc(C4CC4)cc3C(F)F)c3cccn23)C1` [Compound I-507], the IC50 is 0.01 to 0.1 µM.
As to `OCCN1CCC[C@@H](Nc2nnc(-c3ccc(C(F)(F)F)cc3O)c3c2CCCC3)C1` [Compound I-62, 2-[4-[[(3R)-1-(2-hydroxyethyl)-3-piperidyl]amino]-5,6,7,8-tetrahydrophthalazin-1-yl]-5-(trifluoromethyl)phenol], the IC50 is < 0.001 µM.
The value for `CN1CCC[C@@H](Nc2nnc(-c3cc(-c4ccccc4)ccc3O)c3ccccc23)C1` [Compound I-40] was 0.1 to 0.3 µM; that for `CN1CCC[C@@H](Nc2nnc(-c3ccc(Cl)cc3OC(F)F)c3ccccc23)C1` [Compound I-133] was 0.001 to 0.01 µM; that for `CN1CCC[C@@H](Nc2nnc(-c3ccc(C4CC4)cc3C(F)(F)F)c3ccncc23)C1` [Compound I-158] was < 0.001 µM.
In the case of `C[C@@H](O)CNc1nnc(-c2ccc(C(F)(F)F)cc2C(F)(F)F)c2cccn12` [Compound I-492], the IC50 is 0.001 to 0.01 µM.
Take `Oc1cc(C(F)(F)F)ccc1-c1nnc(N[C@@H]2CCCNC2)c2cnccc12` [Compound I-35]: the half-inhibitory concentration (IC50) was < 0.001 µM.
`CCOC(=O)[C@@H]1CC[C@@H](Nc2nnc(-c3ccc(C(F)(F)F)cc3O)c3ccncc23)CN1` [Compound I-266, Ethyl (2S,5R)-5-((1-(2-hydroxy-4-(trifluoromethyl)phenyl)pyrido[3,4-d]pyridazin-4-yl)amino)piperidine-2-carboxylate]: the IC50 is < 0.001 µM.
The value for `Oc1cc(C(F)(F)F)ccc1-c1nnc(N[C@@H]2CCCN(CC(F)(F)F)C2)n2cccc12` [Compound I-483] was 0.1 to 0.3 µM; that for `CCN1CCC[C@@H](Nc2nnc(-c3c(O)cc(C)cc3F)c3cc(C)nn23)C1` [Compound I-515] was < 0.001 µM; that for `C[C@]1(O)C[C@@H](Nc2nnc(-c3ccc(Cl)cc3O)c3cncn23)C1` [Compound I-549] was 0.001 to 0.01 µM.
The value for `CCN1CCC[C@@H](Nc2nnc(-c3ccc(Cl)cc3C(F)F)c3cccn23)C1` [Compound I-505] was 0.01 to 0.1 µM.
Turning to `CN1CCC[C@@H](Nc2nnc(-c3ccc(C(F)(F)F)cc3O)c3cnccc23)C1` [Compound I-54], the IC50 was < 0.001 µM.
Consider `CN1C[C@H](F)C[C@@H](Nc2nnc(-c3c(O)cc(C4CC4)cc3F)c3cccn23)C1` [Compound I-445, 5-Cyclopropyl-3-fluoro-2-[4-[[(3R,5R)-5-fluoro-1-methyl-3-piperidyl]amino]-pyrrolo[1,2-d][1,2,4]triazin-1-yl]phenol], for which the IC50 was 0.001 to 0.01 µM.
Take `COc1c(C2CC2)ccc(F)c1-c1nnc(N[C@@H]2CCCN(C)C2)c2cnccc12` [Compound I-208]: the IC50 is 0.01 to 0.1 µM.
